Here are results for 9 compounds from patent publication US9504690B2, “Tetracyclic xanthene derivatives and methods of use thereof for the treatment of viral diseases” (Merck Sharp & Dohme Corp., priority 2011, dated 2016).

Bounds are passed on as bounds.

The test system of one test is HCV replicon 3a WT. Description: Cell-based HCV replicon assay, 3a WT. The settings on record: Hepatitis C virus, 72 h; replicon cells, harvested day 3, replicon RNA by real time PCR (Taqman). As to the method:
(§1) To measure cell-based anti-HCV activity of selected compounds of the present invention, replicon cells were seeded at 5000 cells/well in 96-well collagen I-coated Nunc plates in the presence of the test compound. Various concentrations of test compound, typically in 10 serial 2-fold dilutions, were added to the assay mixture, with the starting concentration ranging from 250 μM to 1 μM. The final concentration of DMSO was 0.5%, fetal bovine serum was 5%, in the assay media. Cells were harvested on day 3 by the addition of 1× cell lysis buffer (Ambion cat #8721). The replicon RNA level was measured using real time PCR (Taqman assay). The amplicon was located in 5B. The PCR primers were: 5B.2F, ATGGACAGGCGCCCTGA (SEQ. ID. NO. 1); 5B.2R, […] (SEQ. ID. NO. 2); the probe sequence was FAM-labeled CACGCCATGCGCTGCGG (SEQ. ID. NO. 3). GAPDH RNA was used as endogenous control and was amplified in the same reaction as NS5B (multiplex PCR) using primers and VIC-labeled probe recommended by the manufacturer (PE Applied Biosystem). The real-time RT-PCR reactions were run on ABI PRISM 7900HT Sequence Detection System using the following program: 48° C. for 30 minutes, 95° C. for 10 minutes, 40 cycles of 95° C. for 15 sec, 60° C. for 1 minutes. The ΔCT values (CT5B-CTGAPDH) were plotted against the concentration of test compound and fitted to the sigmoid dose-response model using XLfit4 (MDL). […] Alternatively, to quantitate the absolute amount of replicon RNA, a standard curve was established by including serially diluted T7 transcripts of replicon RNA in the Taqman assay. All Taqman reagents were from PE Applied Biosystems. Such an assay procedure was described in detail in e.g. Malcolm et al., Antimicrobial Agents and Chemotherapy 50: 1013-1020 (2006).
(§2) HCV replicon assay data was calculated for selected compounds of the present invention using this method and is provided in the table below.

The next test relates to HCV replicon 1b WT. Description: Cell-based HCV replicon assay, 1b WT. The settings on record: Hepatitis C virus, 72 h; replicon cells, harvested day 3, replicon RNA by real time PCR (Taqman). How it is done:
as §1, §2

The subject of another test is HCV replicon 2a WT. Put plainly: Cell-based HCV replicon assay, 2a WT. The settings on record: Hepatitis C virus, 72 h; replicon cells, harvested day 3, replicon RNA by real time PCR (Taqman). As to the method:
as §1, §2

In another test the test system is HCV replicon 1a Y93H. Description: Cell-based HCV replicon assay, 1a Y93H. Particulars: Hepatitis C virus, 72 h, read-out: Replicon EC50 1a Y93H. As to the method: as §1, §2
Another test deals with HCV replicon 1a WT. Description: Cell-based HCV replicon assay, 1a WT. The settings on record: Hepatitis C virus, 72 h; replicon cells, harvested day 3, replicon RNA by real time PCR (Taqman). As to the method: as §1, §2
A further test relates to HCV replicon 4a WT. Put plainly: Cell-based HCV replicon assay, 4a WT. The settings on record: Hepatitis C virus, 72 h; replicon cells, harvested day 3, replicon RNA by real time PCR (Taqman). As to the method: as §1, §2
Background: A replicon is a self-replicating genome or part of one, used to study replication in cells.

By EC50 is commonly meant the midpoint of the concentration-response curve. For `COC(=O)N[C@H](C(=O)N1CCC[C@H]1c1ncc(-c2ccc3c(c2)Oc2ccc(-c4cnc([C@@H]5CCCN5C(=O)[C@@H](NC(=O)OC)C(C)(C)C)[nH]4)c4ccn-3c24)[nH]1)C(C)(C)C` [Compound 2, Methyl [(2S)-1-{(2S)-2-[5-(3-(2-[(2S)-1-(2S)-2-[(methoxycarbonyl)amino]-3,3-di-methylbutanoyl}pyrrolidin-2-yl]-1H-imidazol-5-ylpyrrolo[3,2,1-kl]phenoxazin-8-yl)-1H-imidazol-2-yl]pyrrolidin-1-yl)-3,3-dimethyl-1-oxobutan-2-yl]carbamate], the concentration for a half-maximal effect (EC50) with HCV replicon 3a WT turned out to be 1.26 nM; in the test on HCV replicon 1b WT, 0.00443 nM; in the test on HCV replicon 2a WT, 0.018 nM; in the test on HCV replicon 1a Y93H, 454 nM; in the test on HCV replicon 1a WT, 0.0736 nM; in the test with HCV replicon 4a WT, 4.91 nM.

As to `COC(=O)N[C@@H](C(=O)N1CCC[C@H]1c1ncc(-c2ccc3c(c2)Oc2ccc(-c4cnc([C@@H]5CCCN5C(=O)[C@H](NC(=O)OC)c5ccccc5)[nH]4)c4ccn-3c24)[nH]1)c1ccccc1` [Compound 3, Dimethyl (pyrrolo[3,2,1-kl]phenoxazine-3,8-diylbis{1H-imidazole-5,2-diyl(2S)pyrrolidine-2,1-diyl[(1R)-2-oxo-1-phenylethane-2,1-diyl]})biscarbamate], the EC50 worked out at 0.019 nM in the test with HCV replicon 3a WT; 0.007 nM with HCV replicon 1b WT; 0.006 nM in the test on HCV replicon 2a WT; 348 nM with HCV replicon 1a Y93H; 0.097 nM with HCV replicon 1a WT; 0.04 nM in the test with HCV replicon 4a WT.

Consider `COC(=O)N[C@H](C(=O)N1CCC[C@H]1c1ncc(-c2ccc3c(c2)Oc2ccc(-c4cnc([C@@H]5CCCN5C(=O)[C@@H](NC(=O)OC)C5CC5)[nH]4)c4ccn-3c24)[nH]1)C1CC1` [Compound 4, Dimethyl (pyrrolo[3,2,1-kl]phenoxazine-3,8-diylbis{1H-imidazole-5,2-diyl(2S)-pyrrolidine-2,1-diyl[(1S)-1-cyclopropyl-2-oxoethane-2,1-diyl]})biscarbamate], for which the concentration for a half-maximal effect (EC50) with HCV replicon 3a WT was 1.9 nM; with HCV replicon 1b WT, 0.006 nM; in the test on HCV replicon 2a WT, 0.012 nM; in the test with HCV replicon 1a Y93H, 64.4 nM; with HCV replicon 1a WT it was 0.007 nM; in the test with HCV replicon 4a WT, 3.12 nM.

`COC(=O)N[C@H](C(=O)N1CCC[C@H]1c1ncc(-c2ccc3c(c2)-n2ccc4c(-c5cnc([C@@H]6CCCN6C(=O)[C@@H](NC(=O)OC)C(C)C)[nH]5)ccc(c42)O3)[nH]1)C(C)C` [Compound 5, Methyl [(2S)-1-{(2S)-2-[5-(3-{2-[(2S)-1-{(2S)-2-[(methoxycarbonyl)amino]-3-methyl-butanoyl}pyrrolidin-2-yl]-1H-imidazol-5-yl}pyrrolo[3,2,1-kl]phenoxazin-9-yl)-1H-imidazol-2-yl]pyrrolidin-1-yl}-3-methyl-1-oxobutan-2-yl]carbamate]: the EC50 is 19 nM in the test with HCV replicon 1b WT, 20 nM in the test with HCV replicon 2a WT and over 26 nM in the test with HCV replicon 1a WT.

In the case of `COC(=O)N[C@H](C(=O)N1CCC[C@H]1c1ncc(-c2ccc3c(c2)Oc2cc(-c4cnc([C@@H]5CCCN5C(=O)[C@@H](NC(=O)OC)C(C)C)[nH]4)cc4c2N3CC4)[nH]1)C(C)C` [Compound 7, Methyl [(2S)-1-{(2S)-2-[5-(4-{2-[(2S)-1-{(2S)-2-[(methoxycarbonyl)amino]-3-methylbutanoyl}pyrrolidin-2-yl]-1H-imidazol-5-yl}-1,2-dihydropyrrolo[3,2,1-kl]phenoxazin-8-yl)-1H-imidazol-2-yl]pyrrolidin-1-yl}-3-methyl-1-oxobutan-2-yl]carbamate], the 50% effective concentration (EC50) is 1.1 nM in the test on HCV replicon 3a WT; 0.044 nM in the test on HCV replicon 1b WT; 0.063 nM with HCV replicon 2a WT; 263 nM with HCV replicon 1a Y93H; 0.1 nM with HCV replicon 1a WT; 1.05 nM in the test with HCV replicon 4a WT.

As for `COC(=O)N[C@H](C(=O)N1CC(F)(F)C[C@H]1c1ncc(-c2ccc3c(c2)Oc2ccc(-c4cnc([C@@H]5CC(F)(F)CN5C(=O)[C@@H](NC(=O)OC)C(C)C)[nH]4)c4ccn-3c24)[nH]1)C(C)C` [Compound 8, Methyl [(2S)-1-{(2S)-2-[5-(3-{2-[(2S)-4,4-difluoro-1-{(2S)-2-[(methoxycarbonyl)amino]-3-methylbutanoyl}pyrrolidin-2-yl]-1H-imidazol-5-yl}pyrrolo[3,2,1-kl]phenoxazin-8-yl)-1H-imidazol-2-yl]-4,4-difluoropyrrolidin-1-yl}-3-methyl-1-oxobutan-2-yl]carbamate], the EC50 amounted to 0.31 nM in the test with HCV replicon 3a WT; 0.001 nM in the test with HCV replicon 1b WT; 11.5 nM with HCV replicon 1a Y93H; 0.004 nM with HCV replicon 1a WT; 0.019 nM with HCV replicon 4a WT.

Regarding `COC(=O)N[C@H](C(=O)N1C[C@H](F)C[C@H]1c1ncc(-c2ccc3c(c2)Oc2ccc(-c4cnc([C@@H]5C[C@@H](F)CN5C(=O)[C@@H](NC(=O)OC)C(C)C)[nH]4)c4ccn-3c24)[nH]1)C(C)C` [Compound 9, Methyl [(2S)-1-{(2S,4R)-4-fluoro-2-[5-(3-{2-[(2S,4R)-4-fluoro-1-{(2S)-2-[(methoxycarbonyl)amino]-3-methylbutanoyl}pyrrolidin-2-yl]-1H-imidazol-5-yl}pyrrolo[3,2,1-kl]phenoxazin-8-yl)-1H-imidazol-2-yl]pyrrolidin-1-yl}-3-methyl-1-oxobutan-2-yl]carbamate], the 50% effective concentration (EC50) was determined as 1.5 nM in the test with HCV replicon 3a WT; 0.005 nM in the test with HCV replicon 1b WT; 27.5 nM in the test on HCV replicon 1a Y93H; 0.01 nM in the test with HCV replicon 1a WT; 0.1 nM in the test on HCV replicon 4a WT.

In the case of `COC(=O)N[C@H](C(=O)N1CCC[C@H]1c1ncc(-c2ccc3c(c2)Oc2cc(-c4cnc([C@@H]5CCCN5C(=O)[C@@H](NC(=O)OC)C(C)C)[nH]4)cc4c2N3CCC4)[nH]1)C(C)C` [Compound 11, Methyl [(2S)-1-{(2S)-2-[5-(5-{2-[(2S)-1-{(2S)-2-[(methoxycarbonyl)amino]-3-methylbutanoyl}pyrrolidin-2-yl]-1H-imidazol-5-yl}-2,3-dihydro-1H-pyrido[3,2,1-kl]phenoxazin-9-yl)-1H-imidazol-2-yl]pyrrolidin-1-yl}-3-methy-1-oxobutan-2-yl]carbamate], the EC50 was 10 nM in the test with HCV replicon 3a WT; 0.031 nM in the test on HCV replicon 1b WT; 0.345 nM in the test with HCV replicon 2a WT; 504 nM in the test on HCV replicon 1a Y93H; 0.1 nM with HCV replicon 1a WT; 1.02 nM in the test on HCV replicon 4a WT.

Consider `COC(=O)N[C@H](C(=O)N1CCC[C@H]1c1ncc(-c2cc3c4c(c2)Oc2ccc(-c5cnc([C@@H]6CCCN6C(=O)[C@@H](NC(=O)OC)C(C)C)[nH]5)cc2C4CO3)[nH]1)C(C)C` (stereo partly drawn) [Compound 15, Methyl [(2S)-1-{(2S)-2-[5-(4-{2-[(2S)-1-{(2S)-2-[(methoxycarbonyl)amino]-3-methylbutanoyl}pyrrolidin-2-yl]-1H-imidazol-5-yl}-1,10b-dihydrofuro[2,3,4-kl]xanthen-9-yl)-1H-imidazol-2-yl]pyrrolidin-1-yl}-3-methyl-1-oxobutan-2-yl]carbamate], for which the EC50 was determined as 0.52 nM in the test with HCV replicon 3a WT; 0.004 nM in the test with HCV replicon 1b WT; 83 nM in the test with HCV replicon 1a Y93H; 0.06 nM in the test on HCV replicon 1a WT; 0.39 nM with HCV replicon 4a WT.
